Experiment [1] deals with GDP-bound NRAS wild-type protein (Homo sapiens, UniProt P01111). Put plainly: Binding to NRAS by surface plasmon resonance (SPR), Single Cycle Kinetics. The following applies: for NRAS/KRAS (ratio of KD value with respect to GDP-bound NRAS wild-type protein to KD value with respect to KRAS): class symbols; for NRAS/KRAS (ratio of KD value for NRAS to KD value for KRAS): GDP-bound NRAS wild-type vs GDP-bound KRAS wild-type, SPR. On the technique in general: SPR reads the build-up and loss of mass on a sensor chip optically.
Sequence of GDP-bound NRAS wild-type protein (P01111 whole entry): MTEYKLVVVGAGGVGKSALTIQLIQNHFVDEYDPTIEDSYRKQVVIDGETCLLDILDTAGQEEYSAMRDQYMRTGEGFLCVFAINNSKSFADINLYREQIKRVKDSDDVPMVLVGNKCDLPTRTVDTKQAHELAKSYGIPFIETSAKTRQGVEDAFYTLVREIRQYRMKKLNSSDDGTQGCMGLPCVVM

Experiment [2] addresses GDP-bound HRAS wild-type protein (Homo sapiens, UniProt P01112). Put plainly: Binding to HRAS by surface plasmon resonance (SPR), Single Cycle Kinetics. The following applies: for HRAS/KRAS (ratio of KD value with respect to GDP-bound HRAS wild-type protein to KD value with respect to KRAS): class symbols; for HRAS/KRAS (ratio of KD value for HRAS to KD value for KRAS): GDP-bound HRAS wild-type vs GDP-bound KRAS wild-type, SPR.

The results in this text go back to US20250230193A1, “CYCLIC COMPOUND HAVING SELECTIVE KRAS INHIBITORY EFFECT ON HRAS AND NRAS” (CHUGAI SEIYAKU KABUSHIKI KAISHA, priority 2022, published 2025).

SMILES strings stand for the structures. *1 amine or outer side, *2 acyl side, *3 side chain or, on linkers, in order; H or OH if unused. Where a SMILES comes first, the peptide text is derived from it. Bridges are numbered along the chain shown (N, C = ends). [ ]: non-standard residue; d: D form. The star is where a group is joined. hPhe(3-Cl-4-CF3) = N[C@@H](CCc1ccc(C(F)(F)F)c(Cl)c1)C(=O)O; NPrPhe(4-CF3) = CCCN[C@@H](Cc1ccc(C(F)(F)F)cc1)C(=O)O; X30 = CCN([C@H](C(=O)[*:2])C1CCCC1)[*:1]; NMeD = CN[C@@H](CC(=O)O)C(=O)O; NMeL = CN[C@@H](CC(C)C)C(=O)O; Morpholide = C1CN(*)CCO1; Ac4c = NC1(C(=O)O)CCC1; Sar = CNCC(=O)O

Sequence of GDP-bound HRAS wild-type protein (P01112 whole entry): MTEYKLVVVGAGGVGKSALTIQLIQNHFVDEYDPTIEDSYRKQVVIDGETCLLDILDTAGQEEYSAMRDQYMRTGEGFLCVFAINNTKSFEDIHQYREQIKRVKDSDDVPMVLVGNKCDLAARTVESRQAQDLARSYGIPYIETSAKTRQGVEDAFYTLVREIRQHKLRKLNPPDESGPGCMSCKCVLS

`CCC(CC)[C@H]1C(=O)N(C)[C@H](C(=O)N(C)C)CC(=O)N(C)[C@@H](COC)C(=O)N[C@@H]([C@@H](C)CC)C(=O)N(C)CC(=O)N(C)[C@H]2C/C=C\CCN(C2=O)[C@@H](Cc2ccc(C(F)(F)F)cc2)C(=O)N(C)CC(=O)N[C@@H](CCc2ccc(Cl)c(Cl)c2)C(=O)N2CCOC[C@H]2C(=O)NC2(CC(C)(C)C2)C(=O)N1C` [PP2941]: the “NRAS/KRAS (ratio of KD value with respect to GDP-bound NRAS wild-type protein to KD value with respect to KRAS)” value in experiment [1] is recorded as “AA (a compound having 20 or more is denoted as AA)”. In addition, in experiment [2], the “HRAS/KRAS (ratio of KD value with respect to GDP-bound HRAS wild-type protein to KD value with respect to KRAS)” value was “A (a compound having 10 or more and less than 20 is denoted as A)”.

Regarding `CC[C@H](C)[C@@H]1NC(=O)[C@H](COC)N(C)C(=O)C[C@@H](C(=O)N(C)C)N(C)C(=O)[C@H](C2CCCC2)N(C)C(=O)C2(CC(C)(C)C2)NC(=O)[C@@H]2C[C@@H](OC3CCC3)CN2C(=O)[C@H](CCc2cc(F)c(C(F)(F)F)c(F)c2)NC(=O)CN(C)C(=O)[C@H](CC2CCCCC2)N2CC/C=C\C[C@@H](C2=O)N(C)C(=O)CN(C2CC2)C1=O` [PP2618], the “NRAS/KRAS (ratio of KD value with respect to GDP-bound NRAS wild-type protein to KD value with respect to KRAS)” value in experiment [1] was “A (a compound having 10 or more and less than 20 is denoted as A)”. The “HRAS/KRAS (ratio of KD value with respect to GDP-bound HRAS wild-type protein to KD value with respect to KRAS)” value in experiment [2] was “A (a compound having 10 or more and less than 20 is denoted as A)”.

As to `CCC[C@H]1C(=O)N[C@@H]([C@@H](C)CC)C(=O)N(C2CC2)CC(=O)N(C)[C@H]2C/C=C\CCN(C2=O)[C@@H](Cc2ccc(C)cc2)C(=O)N(C)CC(=O)N[C@@H](CCc2ccc(C(F)(F)F)c(OC)c2)C(=O)N2C[C@H](OCC)C[C@H]2C(=O)NC2(CC(C)(C)C2)C(=O)N(C)[C@@H](CC(C)(C)C)C(=O)N(C)[C@H](C(=O)N(C)C)CC(=O)N1C` [PP2722], in experiment [1], the “NRAS/KRAS (ratio of KD value with respect to GDP-bound NRAS wild-type protein to KD value with respect to KRAS)” value was “B (a compound having 3 or more and less than 10 is denoted as B)”. Besides, the “HRAS/KRAS (ratio of KD value with respect to GDP-bound HRAS wild-type protein to KD value with respect to KRAS)” value in experiment [2] is “B (a compound having 3 or more and less than 10 is denoted as B)”.

For `CC[C@H](C)[C@@H]1NC(=O)[C@H](CC(F)(F)F)N(C)C(=O)C[C@@H](C(=O)N(C)C)N(C)C(=O)[C@H](C2CCCC2)N(C)C(=O)C2(CC(C)(C)C2)NC(=O)[C@@H]2CC(F)(F)CN2C(=O)[C@H](CCc2cc(F)c(C(F)(F)F)c(F)c2)NC(=O)CN(C)C(=O)[C@H](Cc2ccc(C(F)(F)F)cc2)N2CC/C=C\C[C@@H](C2=O)N(C)C(=O)CN(C)C1=O` [PP1710], the “NRAS/KRAS (ratio of KD value for NRAS to KD value for KRAS)” value in experiment [1] is “A (a compound having 10 or more and less than 20 is denoted as A)”. Also, in experiment [2], the “HRAS/KRAS (ratio of KD value for HRAS to KD value for KRAS)” value was “B (a compound having 3 or more and less than 10 is denoted as B)”.

In the case of `CCC[C@H]1C(=O)N[C@@H]([C@@H](C)CC)C(=O)N(C)CC(=O)N(C)[C@H]2C/C=C\CCN(C2=O)[C@@H](Cc2ccc(C)cc2)C(=O)N(C)CC(=O)N[C@@H](CCc2ccc3c(C)cn(C)c3c2)C(=O)N2C[C@H](OCC)C[C@H]2C(=O)NC2(CC(C)(C)C2)C(=O)N(C)[C@@H](C2CCCC2)C(=O)N(C)[C@H](C(=O)N(C)C)CC(=O)N1C` [PP2899], the “NRAS/KRAS (ratio of KD value with respect to GDP-bound NRAS wild-type protein to KD value with respect to KRAS)” value in experiment [1] was “A (a compound having 10 or more and less than 20 is denoted as A)”. Besides, the “HRAS/KRAS (ratio of KD value with respect to GDP-bound HRAS wild-type protein to KD value with respect to KRAS)” value in experiment [2] was “B (a compound having 3 or more and less than 10 is denoted as B)”.

Turning to `CCCN1C(=O)CN(C)C(=O)CN(C)C(=O)[C@H]([C@@H](C)CC)NC(=O)[C@H](CC(C)C)N(C)C(=O)C[C@@H](C(=O)N2CCOCC2)N(C)C(=O)[C@H](C2CCCC2)N(CC)C(=O)C2(CCC2)NC(=O)[C@@H]2CCCN2C(=O)[C@H](CCc2ccc(C(F)(F)F)c(Cl)c2)NC(=O)CN(C)C(=O)[C@@H]1Cc1ccc(C(F)(F)F)cc1` [PP1952] ([NMeL]I[Sar][Sar][NPrPhe(4-CF3)][Sar][hPhe(3-Cl-4-CF3)]P[Ac4c][X30][NMeD]-Morpholide; lactam N-11), the “NRAS/KRAS (ratio of KD value for NRAS to KD value for KRAS)” value in experiment [1] was “B (a compound having 3 or more and less than 10 is denoted as B)”. Besides, the “HRAS/KRAS (ratio of KD value for HRAS to KD value for KRAS)” value in experiment [2] is “B (a compound having 3 or more and less than 10 is denoted as B)”.
